Data from PubChem BioAssay (NCI).
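The compound was tested at five concentrations on cells cultured in 96-well plates, with a 48-hour exposure period. GI50 is the concentration that inhibits growth by half. TGI: concentration producing complete growth inhibition.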

Columns and labels:
Assay in all cases: growth of human tumour cells (NCI), 48 h
K-562 leukemia = system: K-562 leukemia
CCRF-CEM leukemia = system: CCRF-CEM leukemia
LOX IMVI melanoma = system: LOX IMVI melanoma
NCI-H460 lung = system: NCI-H460 lung
OVCAR-3 ovarian = system: OVCAR-3 ovarian
HT29 colon = system: HT29 colon
OVCAR-5 ovarian = system: OVCAR-5 ovarian
HCT-15 colon = system: HCT-15 colon
M14 melanoma = system: M14 melanoma
ACHN renal = system: ACHN renal

| Compound | TGI (K-562 leukemia) | TGI (CCRF-CEM leukemia) | TGI (LOX IMVI melanoma) | TGI (NCI-H460 lung) | TGI (OVCAR-3 ovarian) | TGI (HT29 colon) | TGI (OVCAR-5 ovarian) | TGI (HCT-15 colon) | TGI (M14 melanoma) | TGI (ACHN renal) | GI50 (K-562 leukemia) | GI50 (CCRF-CEM leukemia) | GI50 (LOX IMVI melanoma) | GI50 (NCI-H460 lung) | GI50 (OVCAR-3 ovarian) | GI50 (HT29 colon) | GI50 (OVCAR-5 ovarian) | GI50 (ACHN renal) | GI50 (HCT-15 colon) | GI50 (M14 melanoma) |
| --- | --- | --- | --- | --- | --- | --- | --- | --- | --- | --- | --- | --- | --- | --- | --- | --- | --- | --- | --- | --- |
| CC(C)(C)[Si](C)(C)OCC1OC(n2cnc3c(N)ncnc32)CC1O (stereo unspecified) | > 100 µM | > 100 µM | > 100 µM | > 100 µM | > 100 µM | > 100 µM | > 100 µM | > 100 µM | > 100 µM |  |  |  |  |  |  |  |  |  |  |  |
| Cc1cc(C)n(-c2nsc3ccccc23)n1 | > 100 µM | > 100 µM | > 100 µM | > 100 µM | > 100 µM | > 100 µM | > 100 µM | > 100 µM | > 100 µM | > 100 µM |  |  |  |  |  |  |  |  |  |  |
| CCN(CC)CCNc1ccc2nnn3c4ccc(C)cc4c(=O)c1c23 | 25.9 µM | 25.6 µM | 14.8 µM | 13.9 µM | 29.9 µM | 16.1 µM | 21.4 µM | 22.4 µM | 26.4 µM | 21.3 µM |  |  |  |  |  |  |  |  |  |  |
| N#CN=[N+]([O-])c1ccc(C(=O)O)cc1 | 38.4 µM | 51.9 µM |  | > 100 µM | 29.7 µM | 46.3 µM | 34.7 µM | 34.1 µM | 34 µM | 32.7 µM |  |  |  |  |  |  |  |  |  |  |
| Fc1ccc(C2CC(c3cccc(Nc4ccncc4)c3)=NN2c2ccc(Cl)cc2)cc1 (stereo unspecified) | 4.86 µM | 9.87 µM | 3.06 µM | 3.35 µM | 3.07 µM | 4.44 µM | 4.05 µM | 3.82 µM | 3.38 µM | 2.96 µM | 1.86 µM | 3.12 µM | 1.69 µM | 1.79 µM | 1.62 µM | 1.99 µM | 1.81 µM | 1.61 µM | 1.91 µM | 1.77 µM |
| O=C1CSC(=S)N1 | > 100 µM | > 100 µM | > 100 µM | > 100 µM | > 100 µM |  | > 100 µM | > 100 µM | > 100 µM | > 100 µM |  |  |  |  |  |  |  |  |  |  |
| CC(=O)c1ccc2c(c1)c1c(C)c3c[n+](C)ccc3c(C)c1n2C | > 72.2 µM | > 46.3 µM | 49.4 µM | 15.1 µM | > 65.6 µM | > 100 µM | > 100 µM | > 100 µM |  |  |  |  |  |  |  |  |  |  |  |  |
| Cc1ccc2c(c1)C(=O)N(N(C)C)CC(=O)N2 | > 100 µM | > 100 µM | > 100 µM | > 100 µM | > 100 µM | > 100 µM | > 100 µM | > 100 µM | > 100 µM | > 100 µM |  |  |  |  |  |  |  |  |  |  |
| NCCCOc1ccc([N+](=O)[O-])cc1Cl | > 100 µM | > 100 µM |  | > 100 µM | > 100 µM | > 100 µM | > 100 µM | > 100 µM | > 100 µM | > 100 µM |  |  |  |  |  |  |  |  |  |  |
| Cc1cc2c(cc1C)OC(=O)CC2 | > 100 µM | > 100 µM | > 100 µM | > 100 µM | > 100 µM | > 100 µM | > 100 µM |  | > 100 µM | > 100 µM |  |  |  |  |  |  |  |  |  |  |
| O=C1NC2=C(CCCC/C2=N\O)C12CCCCC2 | > 100 µM |  | > 100 µM | > 100 µM | > 100 µM | > 100 µM | > 100 µM | > 100 µM | > 100 µM | > 100 µM |  |  |  |  |  |  |  |  |  |  |
| CC(=O)OCC1=C(C(=O)O)N2C(=O)C(NC(=O)CSc3ccncc3)C2SC1 (stereo unspecified) | > 100 µM | > 100 µM | > 100 µM | > 100 µM | > 100 µM | > 100 µM | > 100 µM | > 100 µM | > 100 µM | > 100 µM |  |  |  |  |  |  |  |  |  |  |
| Brc1ccc(C2CC(c3cccc4ccccc34)=Nc3ccccc3S2)cc1 (stereo unspecified) | > 100 µM | 81.6 µM | > 100 µM | > 100 µM |  | > 100 µM | > 100 µM | > 100 µM | > 100 µM | > 100 µM |  |  |  |  |  |  |  |  |  |  |
| CCOC(=O)NC(Nc1ncccn1)(C(=O)OCC)C(F)(F)F (stereo unspecified) | > 100 µM | > 100 µM | > 100 µM | > 100 µM | > 100 µM | > 100 µM | > 100 µM | > 100 µM | > 100 µM | > 100 µM |  |  |  |  |  |  |  |  |  |  |
